These results are taken from a melting point compilation (Tetko et al.; mined from patent text by program, amines drawn as free bases though some values may be those of a salt).

Molecules are shown by their SMILES. Bounds are passed on as bounds.

`O=C1Nc2cc(-n3nnn(CCCF)c3=O)c(F)cc2CC1Cl` (stereo not given) displayed a melting point of 114 to 118 °C.

`O=[N+]([O-])c1cc(CN(CCN=C=S)CCN=C=S)cc(CN(CCN=C=S)CCN=C=S)c1` displayed a melting point of 62 to 64 °C.

In turn, `CCOc1nc(Nc2cccc(C(F)(F)F)c2)nc(N2CCN(C(=O)c3ccn(CC)n3)CC2)n1` yielded a melting point of 145 to 148 °C.

The molecule `CN(C)c1ccc(CN=C(Cc2ccccc2)N2CC3C(=O)CCC(c4ccccc4)(c4ccccc4)C3C2)cc1` (stereo not given) came in with a melting point of 186 °C.

Take `C=C(C(=O)c1cc2c(c(C)c1C)OC(C(=O)O)C2)C(C)C` (stereo not given): the melting point was determined as 97 °C.

As for `O=C(Nc1ccc2c(c1)C(=O)NC2=O)C(=O)N1CCC(Cc2ccc(F)cc2)CC1`, the melting point fell in the range of 226 to 228 °C.

Consider `Cc1ccc(-c2coc3c(C)c(O)ccc3c2=O)cc1`, for which the melting point fell in the range of 264 to 267 °C.

As to `COc1cccc(CNC(=O)c2nc3cccc(OCc4ccc(C#N)cc4)c3c(=O)[nH]2)c1`, the melting point lay in the range of 218 to 220 °C.

In turn, `CN1C(=O)O[C@@H](c2ccc(F)cc2)[C@H]1Cc1ccc(C(F)(F)F)cc1` (racemic) registered a melting point of 77 to 78 °C.

`c1c[nH]c(-c2cnco2)c1` gave a melting point of 57 to 58 °C.

`CC=Cn1c(C)c(C)c2cnnc(NCc3ccccc3)c21` showed a melting point of 130 to 131 °C.

`CCCCc1nc2c(N)nc3ccccc3c2n1CCCCS(=O)(=O)c1ccc(F)cc1F` came in with a melting point of 190 to 193 °C.

Take `COc1cc(O)c2c(c1)CC(C(=O)Nc1ccc(CC3SC(=O)NC3=O)cc1)SCC2=O` (stereo not given): the melting point fell in the range of 131 to 134 °C.

Molecule `COc1ccc(CN(C)CC(O)COc2ccc(NC(=O)c3cccc4c(=O)c5cccc(OC)c5[nH]c34)cc2)cc1OC` (stereo not given) gave a melting point of 175 °C.

In the case of `Cn1cc(C2=C(c3c4n(c5ccccc35)CCC4)C(=O)OC2=O)c2ccccc21`, the melting point was in the range of 125 to 130 °C.

Consider `O=C(Nc1cc(S(=O)(=O)N(CCO)CCO)sc1Cl)c1cnn2c(C(F)(F)F)cc(-c3ccc(C(F)(F)F)cc3)nc12`, for which the melting point is 217 °C.

Turning to `FC(F)(F)c1cc(CO[C@@H]2CCCN(Cc3nc4ccccc4[nH]3)[C@@H]2c2ccccc2)cc(C(F)(F)F)c1` (relative stereo), the melting point lay within 152 to 153 °C.

Molecule `CC1CCCC(C)N1S(=O)(=O)N[C@@H](Cc1ccc(Nc2nccc3cnccc23)cc1)C(=O)O` (stereo not given in full) gave a melting point of 204 °C.

`COc1ccc(CCOc2cncc(Cl)c2)cc1OC` showed a melting point of 101 to 102 °C.

The molecule `N#Cc1c(N2CCCCC2)cc(-c2ccc(-n3cccc3)cc2)c2c1Cc1ccccc1-2` had a melting point of 224 to 226 °C.

With `CC(=O)NNC(=O)N(O)C1c2ccccc2Oc2ccccc21`, the melting point lay in the range of 173 to 176 °C.

For `Clc1ccc(OCSc2ncc(Cl)cn2)cc1`, the melting point is 120 °C.

In turn, `CCN(CC)C(=O)c1cccc(-c2nc(=O)c3ccccc3s2)n1` registered a melting point of 194 °C.

As for `COC(=O)Nc1cc(C)c(Br)cc1I`, the melting point was 140 to 141 °C.

Molecule `CNc1ncc(-c2cc(Cl)cc(Cl)c2Cl)c(N)n1` registered a melting point of 155 to 157 °C.

`CCCc1ccn(-c2ccc(S(C)(=O)=O)cc2)c1-c1ccc(F)cc1` had a melting point of 116 to 117 °C.

Turning to `N#CCc1cccc(-c2ccc(OCCCC(=O)NO)cc2)c1`, the melting point fell in the range of 140 to 144 °C.

As for `O=c1c2ncn3c2n(c(=O)n1Cc1ccccc1)CC=C3c1cccc(C(F)(F)F)c1`, the melting point lay within 198 to 200 °C.

As to `CCCP(=O)(O)CCCN`, the melting point was 210 to 213 °C.

On to `CCOC(=O)C=Cc1ccc2c(c1)CC(CNS(=O)(=O)c1ccc(Cl)cc1)C2` (stereo not given), for which the melting point lay in the range of 113 to 115 °C.

Consider `O=c1[nH]cc(-c2cccnc2)nc1Cc1ccccc1`, for which the melting point is 188 to 190 °C.

In the case of `Cc1cc(C)c2cccc(OCc3c(Cl)ccc(S(=O)(=O)N4CCC[C@H]4C(=O)NCCCNC(=O)COc4ccc(C=NN)cc4)c3Cl)c2n1`, the melting point fell in the range of 124 to 128 °C.

Regarding `CS(=O)(=O)c1ccc(-n2cnc3ccc(-c4nnc(CCc5cccc(C#N)c5)o4)cc32)cc1`, the melting point fell in the range of 225 to 226 °C.

The molecule `Cc1cc(C)c(S(=O)(=O)NC(CSc2ccccc2)C(F)(F)F)c(C)c1` (stereo not given) showed a melting point of 76 to 78 °C.

Molecule `COc1cc(Cl)cc(CO)c1Cl` came in with a melting point of 58 to 64 °C.

For `CC(=O)c1ccc2cc(C(C)Br)ccc2c1` (stereo not given), the melting point was 64 to 66 °C.

`CN1CCOc2cc3c(cc21)OCC31C(=O)N(CC2CCCO2)c2ccccc21` (stereo not given) had a melting point of 138 to 140 °C.

`O=C1CSCc2cc(Br)ccc21` had a melting point of 81 °C.

`COc1cc2c(cc1Br)CC(C)OC2c1ccc([N+](=O)[O-])cc1` (stereo not given) returned a melting point of 128 to 129 °C.

The molecule `ON=Cc1ccc(Cl)c(Cl)c1OCc1ccccc1` showed a melting point of 64 to 69 °C.

Turning to `COc1ccccc1CNc1nc(Cl)nc2c1ncn2[C@@H]1SC[C@@H](O)[C@H]1O`, the melting point stood at 188 °C.

The molecule `Cc1nn2c(C(F)(F)F)cc(-c3ccc(Cl)cc3)nc2c1C#N` yielded a melting point of 238 °C.

Regarding `COc1c([N+](=O)[O-])cc(C#N)c(F)c1O`, the melting point lay in the range of 112 to 113 °C.

The molecule `CC1CCN(CCCCC(=O)c2ccc3c(c2)Cc2cc(C(=O)CCCCN4CCC(C)CC4)ccc2-3)CC1` had a melting point of 143 to 144 °C.

Regarding `O=C(O)CNC(=O)NC(CS)Cc1ccccc1` (single isomer, unassigned; (+)), the melting point is 110 °C.

Molecule `O=C(O)CSc1cccc2c1S(=S)N=N2` (stereo not given) registered a melting point of 207 to 209 °C.

In turn, `N#Cc1cccc(C(=O)c2ccc(C3CCCCC3)cc2)c1` showed a melting point of 73 to 74 °C.

In the case of `COc1ccc(-c2cc(C(N)=O)c(=O)n(CC3CCCC3)n2)cc1`, the melting point was in the range of 182 to 183 °C.

`CC1(C)CCC(C)(C)c2cc(NC(=O)c3ccccc3)ccc21` showed a melting point of 146 to 148 °C.

`CCOC(=O)C(=O)NNc1ccc(N)cc1` showed a melting point of 97 to 99 °C.

In the case of `CC1(C)CCSc2ccc(Br)cc21`, the melting point came to 51 °C.

`COc1ccccc1OCC1SCCN1C(=S)CC(=O)c1cc(OC)c(OC)c(OC)c1` (stereo not given) came in with a melting point of 110 to 112 °C.

Take `C#CCN1Cc2cccnc2N(c2cccc(Br)c2)C1=O`: the melting point lay within 118 to 119 °C.

For the molecule `CC(C(=O)O)c1cccc(Sc2ccccc2F)c1O` (stereo not given), the melting point lay within 116 to 117 °C.

With `CCCN1C(=O)COc2ccc(N3C(=O)C(C)=C(C)C3O)cc21` (stereo not given), the melting point lay within 124 to 125 °C.

In turn, `CS(=O)(=O)Nc1cc([N+](=O)[O-])ccc1F` yielded a melting point of 128 to 129 °C.

For the molecule `COc1cc(C(=O)O)ccc1Cc1cn(C)c2ccc(CCNC(=O)N3CCOCC3)cc12`, the melting point lay within 221 to 226 °C.

In the case of `CCOC(=O)N1CC[C@@H]2CC(=O)c3cc([N+](=O)[O-])ccc3C[C@H]2C1` (relative stereo), the melting point is 112 to 114 °C.

`N#CN1CCSC1=NC1CCc2ccccc21` (stereo not given): the melting point is 90 to 91 °C.

`CC1CCc2cccc3c2N1C(=O)C3=O` (stereo not given) yielded a melting point of 241 to 243 °C.

The molecule `CC1=Nc2c3ccccc3nc(=O)n2C1C` (stereo not given) registered a melting point of 234 to 237 °C.

In the case of `CCOCCn1cc2c(C3C(=O)Nc4ccc(Cl)cc43)nc(NCc3ccncc3)nc2n1` (stereo not given), the melting point lay in the range of 298 to 299 °C.

As to `CNC(=O)c1ccccc1-c1cc(-c2ccccc2)on1`, the melting point is 159 to 160 °C.

Turning to `N#Cc1cnn(-c2nc(Cl)c(C(F)(F)F)cc2Cl)c1Br`, the melting point was in the range of 121 to 122 °C.

Take `CCCCCCCCCCSc1ccc(C(=O)O)cc1`: the melting point was 108 to 109 °C.

For the molecule `COC(=O)N1CCC(CCC(=O)O)CC1`, the melting point fell in the range of 88 to 90 °C.

`CSc1ncc(C2=NCC(C)(C)O2)cc1Cl` registered a melting point of 113 to 115 °C.

Regarding `CC(C)(O)Cn1c(CO)nc2c(N)nc3cc(-c4cncc(CO)c4)cnc3c21`, the melting point lay within 149 to 151 °C.

The molecule `COc1cc(C(C)(C)C(N)=O)cc2c1OC(C)(C)C2` registered a melting point of 112 to 113 °C.

Take `CNC(=O)Nc1sc2nc(C)ccc2c1C(=O)N1CCC(N2CCCC3(CCN(C(C)C)C3=O)C2)CC1` (stereo not given): the melting point is 195 to 198 °C.

For the molecule `C[Si](C)(C)C#Cc1cc(Cl)cnc1N`, the melting point is 108 °C.

In turn, `CCOC(=O)c1ccc(N2CCN(Cc3c[nH]c4ncccc34)CC2)cc1` came in with a melting point of 196 to 197 °C.

`COc1ccnc(Cl)c1N` had a melting point of 86 to 87 °C.

Turning to `C=C(Sc1ccc(Br)cc1)S(=O)(=O)c1ccc(Cl)cc1`, the melting point is 45 to 95 °C.

With `CNS(=O)(=O)c1ccc(-c2ccc3oc(C4CCN(C(=O)OC(C)C)CC4)nc3c2)cc1`, the melting point lay in the range of 179 to 181 °C.

As for `COC(C)=CC(=O)Nc1cccc([N+](=O)[O-])c1`, the melting point was 187 °C.

With `Nc1c(C2=CCCCC2)c(-c2ccccc2)nn1-c1ccccc1`, the melting point is 115 to 117 °C.

In the case of `CN1C(=O)N(C)C(=O)C(Cc2ccccc2)(Cc2ccccc2)C1=O`, the melting point fell in the range of 128 to 129 °C.

The molecule `Cc1ccc(-c2nc(-c3ccc(O)cc3O)nc(-c3ccc(O)cc3O)n2)c(C)c1` showed a melting point of 204 to 207 °C.

For the molecule `CN(C)S(=O)(=O)c1cc(C(=O)Cl)ccc1Cl`, the melting point lay within 103 to 105 °C.

Take `CC1(C)CC(S(=O)(=O)Cc2c(C(F)(F)F)nn(C(F)F)c2Cl)=NO1`: the melting point fell in the range of 126 to 127 °C.

Turning to `CCCCC(=O)N(CCCCn1ccnc1)C1=Nc2cccc3cccc1c23`, the melting point fell in the range of 110 to 112 °C.

`CCOC(=O)c1c(Cl)nc2cc3c(cc2c1CCl)OCCO3` registered a melting point of over 260 °C.

`CC(=O)NCCO[C@H]1COc2ccc3cnn(C[C@@H](C)O)c3c2C1` yielded a melting point of 165 to 166 °C.

For the molecule `CN(N)c1cnn(-c2cccc(C(F)(F)F)c2)c(=O)c1`, the melting point was 125 to 127 °C.

As to `O=c1ccccn1CC1(O)CCN(Cc2ccc(F)cc2)CC1`, the melting point lay within 154 to 156 °C.

As for `CCn1nc(C(F)(F)F)c(C(=O)O)c1Cl`, the melting point fell in the range of 164 to 166 °C.

`CCCOc1ccc([N+](=O)[O-])cc1C=O` yielded a melting point of 51 to 52 °C.

On to `Cc1cc(OC/C=C(\c2ccc(C#CCN3CCOCC3)cc2)c2ccc(S(C)=O)cc2)ccc1OCC(=O)O` (stereo not given), for which the melting point is 137 to 142 °C.

In turn, `COc1cc(OC)c(-c2nc(C)no2)cc1C=O` gave a melting point of 182 to 183 °C.

As usually defined, the melting point is the temperature of the solid-liquid transition.
